Assay results from patent publication US20250339546A1, “GLIOBLASTOMA TUMOR GROWTH INHIBITON BY SAT1 KNOCKDOWN” (BIOMARK CANCER SYSTEMS, INC., priority 2021, published 2025).
Read-outs that look alike come from different tables or passages of the source. Each block holds one molecule with its values, some of them ahead of it.

How the values were obtained:
BBB = assay: Bidirectional BBB permeability in the BBB microfluidic model
Procedure: Permeability coefficients are the mean±SD of 3 microfluidic units.
Finally, the bidirectional BBB permeability of amantadine and rimantadine, as well as their metabolites, was evaluated in the previously described model.

SAT1 [1] = target: SAT1 (Homo sapiens, UniProt P21673)
Procedure: FIG. 17C SAT1 induction was confirmed by Western blot analysis of the protein sample. (mean=+SD, n=3).
Next, SAT1 activity was assessed in U251 cells via production of acetylated-amantadine after treatment with the SAT1 substrate amantadine, or the production of acetylated-rimantadine after treatment with the SAT1 substrate rimantadine.

SAT1 [2] = assay: SAT1 induction in U251 cells (mRNA and Western blot); assay type: cell-based, human; conditions: 10 μM, 24 and 48 hours
From the text: SAT1 expression was next evaluated in U251 cells.

NAT2 = NAT2 gene and protein expression in U251 cells; assay type: cell-based, human; conditions: 10 μM, 24 h and 48 h
NAT1 = NAT1 gene and protein expression in U251 cells; assay type: cell-based, human; conditions: 10 μM, 24 h and 48 h
macrophage cells (ANA-1) = assay: Cell viability/proliferation MTT assay, ANA-1; assay type: cell-based, murine; conditions: 0.1 μM
Procedure: (§1) Cells were transfected in T-25 flask as discussed above. Forty-eight hours after transfection, the cells were seeded in 96-well plates (5000 cells/well). After 24-hours, the cells were exposed to no treatment or either 10 Gy radiation (RS-2000, Rad Source Technologies, Inc., Buford, GA, USA) or anticancer drugs carmustine (i.e., BCNU™ or BiCNU™) (100 μM), Doxorubicin (0.1 μM) and Topotecan (0.2 μM). After 24 hours, the media and treatments were removed and replaced with fresh media and cultured for 48 hours. The percentage of viable cells was determined using MTT assay (Norouzi et al, 2020).

U251 glioblastoma cells = assay: Cell viability/proliferation MTT assay, U251; assay type: cell-based, human; conditions: combined with SAT1 knockdown, DOX 0.1 μM, TOPO 0.2 μM
Procedure: as §1

Chain of SAT1 (Homo sapiens, UniProt P21673) (P21673 whole entry): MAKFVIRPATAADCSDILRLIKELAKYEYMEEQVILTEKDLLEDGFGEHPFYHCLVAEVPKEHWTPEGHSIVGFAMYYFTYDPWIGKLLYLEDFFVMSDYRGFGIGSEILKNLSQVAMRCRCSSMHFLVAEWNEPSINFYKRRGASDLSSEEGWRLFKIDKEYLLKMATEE

Compound: CCNCCCNCCCNCCCNCC [DENSPM, N(1),N(11)-diethylnorspermine]
SAT1 gene and protein expression (SAT1 [2]): enhanced
NAT2 gene and protein expression levels (NAT2): did not significantly change
NAT1 gene and protein expression levels (NAT1): did not significantly change

Compound: COc1cccc2c1C(=O)c1c(O)c3c(c(O)c1C2=O)C[C@@](O)(C(=O)CO)C[C@@H]3O[C@H]1C[C@H](N)[C@H](O)[C@H](C)O1 [DOX, Doxorubicin]
sensitivity of cells to treatment (macrophage cells (ANA-1)): particularly sensitive
cell viabilities/proliferation (U251 glioblastoma cells): lowest

Compound: CC[C@@]1(O)C(=O)OCc2c1cc1n(c2=O)Cc2cc3c(CN(C)C)c(O)ccc3nc2-1 [TOPO, Topotecan]
cell viabilities/proliferation (U251 glioblastoma cells): lowest

Further lines, with some results ahead:

earliest detection after induction (SAT1 [1]): 5 min
earliest detection after induction, in some cases (SAT1 [1]): 3 min
Compound: CC(=O)NC12CC3CC(CC(C3)C1)C2 [Ac-amantadine, acetylated-amantadine]
BBB permeability (BBB; from the brain to blood): able to cross the BBB from the brain to blood efficiently

earliest detection after induction (SAT1 [1]): 5 min
earliest detection after induction, in some cases (SAT1 [1]): 3 min
Compound: CC(=O)NC(C)C12CC3CC(CC(C3)C1)C2 (stereo not drawn) [Ac-rimantadine, acetylated-rimantadine]
BBB permeability (BBB): able to cross the BBB from the brain to blood efficiently

BBB permeability (BBB; from blood to the brain): able to cross
Compound: NC12CC3CC(CC(C3)C1)C2 [amantadine]

BBB permeability (BBB): able to cross
BBB permeability relative to amantadine (BBB): slightly more permeable
Compound: CC(N)C12CC3CC(CC(C3)C1)C2 (stereo not drawn) [rimantadine]
